Data from patent publication US6355799B1, “Substituted benzene compounds, process for their preparation, and herbicidal and defoliant compositions containing them” (ISK Americas Incorporated, priority 1997, dated 2002).

Experiments:
Assay type in all cases: in vivo
[1] = test system: field corn (Zea mays L., var. Dekalb 535, CORN); test: Post-emerge test, crop safety; conditions: rating scale 0-100 (0 no damage, 100 complete death), 14 days after application
Method in brief: (§1)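 Fourteen days after spraying, crop and weed injury was graded visually from 0, no effect, to 100, every plant dead. Test substances were dissolved in acetone and applied at 15–1000 g ai/ha with a flat-fan nozzle. Application was either pre-emergence, one day after sowing, or post-emergence at the 2–3 leaf stage.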

[2] = test system: upland rice (Oryza sp., var. Tebonnet, RICE); test: Post-emerge test, crop safety; conditions: rating scale 0-100 (0 no damage, 100 complete death), 14 days after application
Method in brief: as §1

[3] = test system: johnsongrass (Sorghum halepense, SORHA); test: Post-emerge test, greenhouse herbicide activity screening; conditions: rating scale 0-100 (0 no damage, 100 complete death), 14 days after application
Method in brief: (§2)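 Applied at 15–1000 g ai/ha from acetone in 187 l/ha spray volume. Post-emergence applications included 0.25% v/v non-ionic surfactant and reached plants sown 8–21 days before. Pre-emergence applications were incorporated by surface watering. Efficacy or crop damage was rated on a 0–100 scale after 14 days.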

[4] = test system: barnyardgrass (Echinochloa crus-galli, ECHCG); test: as above; conditions: rating scale 0-100 (0 no damage, 100 complete death), 14 days after application
Method in brief: as §2

[5] = test system: velvetleaf (Abutilon theophrasti, ABUTH); test: as above; conditions: rating scale 0-100 (0 no damage, 100 complete death), 14 days after application
Method in brief: as §2

[6] = test system: green foxtail (Setaria viridis, SETVI); test: as above; conditions: rating scale 0-100 (0 no damage, 100 complete death), 14 days after application
Method in brief: as §2

[7] = test system: sicklepod (Cassia obtusifolia, CASOB); test: as above; conditions: rating scale 0-100 (0 no damage, 100 complete death), 14 days after application
Method in brief: as §2

[8] = test system: ivyleaf morningglory (Ipomoea hederacea, IPOHE); test: as above; conditions: rating scale 0-100 (0 no damage, 100 complete death), 14 days after application
Method in brief: as §2

[9] = test system: lambsquarters (Chenopodium album, CHEAL); test: as above; conditions: rating scale 0-100 (0 no damage, 100 complete death), 14 days after application
Method in brief: as §2

[10] = test system: large crabgrass (Digitaria sanguinalis, DIGSA); test: as above; conditions: rating scale 0-100 (0 no damage, 100 complete death), 14 days after application
Method in brief: as §2

[11] = test system: redroot pigweed (Amaranthus retroflexus, AMARE); test: as above; conditions: rating scale 0-100 (0 no damage, 100 complete death), 14 days after application
Method in brief: as §2

[12] = test system: field corn (Zea mays L., var. Dekalb 535, CORN); test: Pre-emerge test, crop safety; conditions: for Pre-emerge phytotoxicity rating, crop damage CORN: rating scale 0-100, 14 days after application; for phytotoxicity rating CORN: pre-emerge, 14 days after application, rating scale 0-100
Method in brief: (§3)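 Rating: 0–100 visual injury, 14 DAA. Application: acetone, 187 l/ha, 15–1000 g ai/ha, flat-fan track sprayer with nozzle 40–45 cm above soil or canopy. Post-emerge runs used 0.25% v/v surfactant on 2–3 leaf plants.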

[13] = test system: upland rice (Oryza sp., var. Tebonnet, RICE); test: Pre-emerge test, crop safety; conditions: for Pre-emerge phytotoxicity rating, crop damage RICE: rating scale 0-100, 14 days after application; for phytotoxicity rating RICE: pre-emerge, 14 days after application, rating scale 0-100
Method in brief: as §3

[14] = test system: johnsongrass (Sorghum halepense, SORHA); test: Pre-emerge test, greenhouse herbicide activity screening; conditions: for Pre-emerge herbicidal activity, phytotoxicity rating SORHA: rating scale 0-100, 14 days after application; for phytotoxicity rating SORHA: pre-emerge, 14 days after application, rating scale 0-100
Method in brief: as §1

[15] = test system: barnyardgrass (Echinochloa crus-galli, ECHCG); test: as above; conditions: for Pre-emerge herbicidal activity, phytotoxicity rating ECHCG: rating scale 0-100, 14 days after application; for phytotoxicity rating ECHCG: pre-emerge, 14 days after application, rating scale 0-100
Method in brief: as §1

[16] = test system: velvetleaf (Abutilon theophrasti, ABUTH); test: as above; conditions: for Pre-emerge herbicidal activity, phytotoxicity rating ABUTH: rating scale 0-100, 14 days after application; for phytotoxicity rating ABUTH: pre-emerge, 14 days after application, rating scale 0-100
Method in brief: as §1

[17] = test system: green foxtail (Setaria viridis, SETVI); test: as above; conditions: for Pre-emerge herbicidal activity, phytotoxicity rating SETVI: rating scale 0-100, 14 days after application; for phytotoxicity rating SETVI: pre-emerge, 14 days after application, rating scale 0-100
Method in brief: as §1

[18] = test system: sicklepod (Cassia obtusifolia, CASOB); test: as above; conditions: for Pre-emerge herbicidal activity, phytotoxicity rating CASOB: rating scale 0-100, 14 days after application; for phytotoxicity rating CASOB: pre-emerge, 14 days after application, rating scale 0-100
Method in brief: as §1

[19] = test system: ivyleaf morningglory (Ipomoea hederacea, IPOHE); test: as above; conditions: for Pre-emerge herbicidal activity, phytotoxicity rating IPOHE: rating scale 0-100, 14 days after application; for phytotoxicity rating IPOHE: pre-emerge, 14 days after application, rating scale 0-100
Method in brief: as §1

[20] = test system: lambsquarters (Chenopodium album, CHEAL); test: as above; conditions: for Pre-emerge herbicidal activity, phytotoxicity rating CHEAL: rating scale 0-100, 14 days after application; for phytotoxicity rating CHEAL: pre-emerge, 14 days after application, rating scale 0-100
Method in brief: as §1

[21] = test system: large crabgrass (Digitaria sanguinalis, DIGSA); test: as above; conditions: for Pre-emerge herbicidal activity, phytotoxicity rating DIGSA: rating scale 0-100, 14 days after application; for phytotoxicity rating DIGSA: pre-emerge, 14 days after application, rating scale 0-100
Method in brief: as §1

[22] = test system: redroot pigweed (Amaranthus retroflexus, AMARE); test: as above; conditions: for Pre-emerge herbicidal activity, phytotoxicity rating AMARE: rating scale 0-100, 14 days after application; for phytotoxicity rating AMARE: pre-emerge, 14 days after application, rating scale 0-100
Method in brief: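 Sandy loam pots; pre-emerge: sown 1 d pre-spray, surface-watered after, then bottom-watered. Post-emerge: sown 8–21 d before, 2–3 leaf stage, + 0.25% v/v NIS, bottom-watered. Acetone, 187 l/ha track spray, 15–1000 g ai/ha. 0–100 injury score, day 14.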

## COc1c(Cl)cc(F)c(-n2c(=O)cc(C(F)(F)F)n(C)c2=O)c1CC(C)(Cl)C(=O)OCc1ccccc1 (stereo not shown) [14-41]
[1]; Rate 63 g ai/ha
  Post-emerge phytotoxicity rating CORN (crop damage): 100
[1]; Rate 250 g ai/ha
  Post-emerge phytotoxicity rating CORN (crop damage): 100
[2]; Rate 63 g ai/ha
  Post-emerge phytotoxicity rating RICE (crop damage): 20
[2]; Rate 250 g ai/ha
  Post-emerge phytotoxicity rating RICE (crop damage): 95
[3]; Rate 63 g ai/ha
  Post-emerge Herbicidal Activity, phytotoxicity rating SORHA: 40
[3]; Rate 250 g ai/ha
  Post-emerge Herbicidal Activity, phytotoxicity rating SORHA: 70
[4]; Rate 63 g ai/ha
  Post-emerge Herbicidal Activity, phytotoxicity rating ECHCG: 100
[4]; Rate 250 g ai/ha
  Post-emerge Herbicidal Activity, phytotoxicity rating ECHCG: 100
[5]; Rate 63 g ai/ha
  Post-emerge Herbicidal Activity, phytotoxicity rating ABUTH: 100
[5]; Rate 250 g ai/ha
  Post-emerge Herbicidal Activity, phytotoxicity rating ABUTH: 100
[6]; Rate 63 g ai/ha
  Post-emerge Herbicidal Activity, phytotoxicity rating SETVI: 90
[6]; Rate 250 g ai/ha
  Post-emerge Herbicidal Activity, phytotoxicity rating SETVI: 100
[7]; Rate 63 g ai/ha
  Post-emerge Herbicidal Activity, phytotoxicity rating CASOB: 0
[7]; Rate 250 g ai/ha
  Post-emerge Herbicidal Activity, phytotoxicity rating CASOB: 0
[8]; Rate 63 g ai/ha
  Post-emerge Herbicidal Activity, phytotoxicity rating IPOHE: 30
[8]; Rate 250 g ai/ha
  Post-emerge Herbicidal Activity, phytotoxicity rating IPOHE: 50
[9]; Rate 63 g ai/ha
  Post-emerge Herbicidal Activity, phytotoxicity rating CHEAL: 100
[9]; Rate 250 g ai/ha
  Post-emerge Herbicidal Activity, phytotoxicity rating CHEAL: 100
[10]; Rate 63 g ai/ha
  Post-emerge Herbicidal Activity, phytotoxicity rating DIGSA: 100
[10]; Rate 250 g ai/ha
  Post-emerge Herbicidal Activity, phytotoxicity rating DIGSA: 100
[11]; Rate 63 g ai/ha
  Post-emerge Herbicidal Activity, phytotoxicity rating AMARE: 100
[11]; Rate 250 g ai/ha
  Post-emerge Herbicidal Activity, phytotoxicity rating AMARE: 100
[12]; 63 g ai/ha
  Pre-emerge phytotoxicity rating, crop damage CORN: 0
[12]; 250 g ai/ha
  Pre-emerge phytotoxicity rating, crop damage CORN: 0
[13]; 63 g ai/ha
  Pre-emerge phytotoxicity rating, crop damage RICE: 0
[13]; 250 g ai/ha
  Pre-emerge phytotoxicity rating, crop damage RICE: 50
[14]; 63 g ai/ha
  Pre-emerge herbicidal activity, phytotoxicity rating SORHA: 0
[14]; 250 g ai/ha
  Pre-emerge herbicidal activity, phytotoxicity rating SORHA: 0
[15]; 63 g ai/ha
  Pre-emerge herbicidal activity, phytotoxicity rating ECHCG: 0
[15]; 250 g ai/ha
  Pre-emerge herbicidal activity, phytotoxicity rating ECHCG: 80
[16]; 63 g ai/ha
  Pre-emerge herbicidal activity, phytotoxicity rating ABUTH: 90
[16]; 250 g ai/ha
  Pre-emerge herbicidal activity, phytotoxicity rating ABUTH: 100
[17]; 63 g ai/ha
  Pre-emerge herbicidal activity, phytotoxicity rating SETVI: 30
[17]; 250 g ai/ha
  Pre-emerge herbicidal activity, phytotoxicity rating SETVI: 100
[18]; 63 g ai/ha
  Pre-emerge herbicidal activity, phytotoxicity rating CASOB: 0
[18]; 250 g ai/ha
  Pre-emerge herbicidal activity, phytotoxicity rating CASOB: 0
[19]; 63 g ai/ha
  Pre-emerge herbicidal activity, phytotoxicity rating IPOHE: 0
[19]; 250 g ai/ha
  Pre-emerge herbicidal activity, phytotoxicity rating IPOHE: 40
[20]; 63 g ai/ha
  Pre-emerge herbicidal activity, phytotoxicity rating CHEAL: 100
[20]; 250 g ai/ha
  Pre-emerge herbicidal activity, phytotoxicity rating CHEAL: 100
[21]; 63 g ai/ha
  Pre-emerge herbicidal activity, phytotoxicity rating DIGSA: 50
[21]; 250 g ai/ha
  Pre-emerge herbicidal activity, phytotoxicity rating DIGSA: 100
[22]; 63 g ai/ha
  Pre-emerge herbicidal activity, phytotoxicity rating AMARE: 100
[22]; 250 g ai/ha
  Pre-emerge herbicidal activity, phytotoxicity rating AMARE: 100

## CCOC(=O)C(Cl)(CC(=O)OC)Cc1c(OC)c(Cl)cc(F)c1-n1c(=O)cc(C(F)(F)F)n(C)c1=O (stereo not shown) [14-50]
[1]; Rate 63 g ai/ha
  Post-emerge phytotoxicity rating CORN (crop damage): 10
[1]; Rate 250 g ai/ha
  Post-emerge phytotoxicity rating CORN (crop damage): 30
[2]; Rate 63 g ai/ha
  Post-emerge phytotoxicity rating RICE (crop damage): 30
[2]; Rate 250 g ai/ha
  Post-emerge phytotoxicity rating RICE (crop damage): 50
[3]; Rate 63 g ai/ha
  Post-emerge Herbicidal Activity, phytotoxicity rating SORHA: 0
[3]; Rate 250 g ai/ha
  Post-emerge Herbicidal Activity, phytotoxicity rating SORHA: 0
[4]; Rate 63 g ai/ha
  Post-emerge Herbicidal Activity, phytotoxicity rating ECHCG: 0
[4]; Rate 250 g ai/ha
  Post-emerge Herbicidal Activity, phytotoxicity rating ECHCG: 0
[5]; Rate 63 g ai/ha
  Post-emerge Herbicidal Activity, phytotoxicity rating ABUTH: 30
[5]; Rate 250 g ai/ha
  Post-emerge Herbicidal Activity, phytotoxicity rating ABUTH: 50
[6]; Rate 63 g ai/ha
  Post-emerge Herbicidal Activity, phytotoxicity rating SETVI: 0
[6]; Rate 250 g ai/ha
  Post-emerge Herbicidal Activity, phytotoxicity rating SETVI: 0
[7]; Rate 63 g ai/ha
  Post-emerge Herbicidal Activity, phytotoxicity rating CASOB: 90
[7]; Rate 250 g ai/ha
  Post-emerge Herbicidal Activity, phytotoxicity rating CASOB: 100
[8]; Rate 63 g ai/ha
  Post-emerge Herbicidal Activity, phytotoxicity rating IPOHE: 0
[8]; Rate 250 g ai/ha
  Post-emerge Herbicidal Activity, phytotoxicity rating IPOHE: 0
[9]; Rate 63 g ai/ha
  Post-emerge Herbicidal Activity, phytotoxicity rating CHEAL: 50
[9]; Rate 250 g ai/ha
  Post-emerge Herbicidal Activity, phytotoxicity rating CHEAL: 100
[10]; Rate 63 g ai/ha
  Post-emerge Herbicidal Activity, phytotoxicity rating DIGSA: 0
[10]; Rate 250 g ai/ha
  Post-emerge Herbicidal Activity, phytotoxicity rating DIGSA: 50
[11]; Rate 63 g ai/ha
  Post-emerge Herbicidal Activity, phytotoxicity rating AMARE: 100
[11]; Rate 250 g ai/ha
  Post-emerge Herbicidal Activity, phytotoxicity rating AMARE: 100
[12]; 63 g ai/ha
  phytotoxicity rating CORN: 10
[12]; 250 g ai/ha
  phytotoxicity rating CORN: 90
[13]; 63 g ai/ha
  phytotoxicity rating RICE: 0
[13]; 250 g ai/ha
  phytotoxicity rating RICE: 0
[14]; 63 g ai/ha
  phytotoxicity rating SORHA: 50
[14]; 250 g ai/ha
  phytotoxicity rating SORHA: 95
[15]; 63 g ai/ha
  phytotoxicity rating ECHCG: 0
[15]; 250 g ai/ha
  phytotoxicity rating ECHCG: 30
[16]; 63 g ai/ha
  phytotoxicity rating ABUTH: 0
[16]; 250 g ai/ha
  phytotoxicity rating ABUTH: 50
[17]; 63 g ai/ha
  phytotoxicity rating SETVI: 0
[17]; 250 g ai/ha
  phytotoxicity rating SETVI: 50
[18]; 63 g ai/ha
  phytotoxicity rating CASOB: 0
[18]; 250 g ai/ha
  phytotoxicity rating CASOB: 30
[19]; 63 g ai/ha
  phytotoxicity rating IPOHE: 10
[19]; 250 g ai/ha
  phytotoxicity rating IPOHE: 70
[20]; 63 g ai/ha
  phytotoxicity rating CHEAL: 100
[20]; 250 g ai/ha
  phytotoxicity rating CHEAL: 100
[21]; 63 g ai/ha
  phytotoxicity rating DIGSA: 0
[21]; 250 g ai/ha
  phytotoxicity rating DIGSA: 40
[22]; 63 g ai/ha
  phytotoxicity rating AMARE: 100
[22]; 250 g ai/ha
  phytotoxicity rating AMARE: 100
